From PubChem BioAssay (NCI)
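The compound was tested at five concentrations on cells cultured in 96-well plates, with a 48-hour exposure period. Here, GI50 denotes the concentration required for 50% inhibition of growth. TGI: concentration producing complete growth inhibition.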

Legend:
Assay in all cases: DTP human tumour cell line panel, 48 h
NCI-H460 lung = tested on: NCI-H460 lung
LOX IMVI melanoma = tested on: LOX IMVI melanoma
HCC-2998 colon = tested on: HCC-2998 colon
OVCAR-4 ovarian = tested on: OVCAR-4 ovarian
BT-549 breast = tested on: BT-549 breast
DU-145 prostate = tested on: DU-145 prostate
HCT-15 colon = tested on: HCT-15 colon
MCF7 breast = tested on: MCF7 breast
SF-295 CNS = tested on: SF-295 CNS
SK-MEL-5 melanoma = tested on: SK-MEL-5 melanoma
A549 NSCLC = tested on: A549 NSCLC
CCRF-CEM leukemia = tested on: CCRF-CEM leukemia
OVCAR-3 ovarian = tested on: OVCAR-3 ovarian
RPMI-8226 leukemia = tested on: RPMI-8226 leukemia
HS 578T breast = tested on: HS 578T breast
786-0 renal = tested on: 786-0 renal
K-562 leukemia = tested on: K-562 leukemia
ACHN renal = tested on: ACHN renal
MOLT-4 leukemia = tested on: MOLT-4 leukemia
HOP-62 NSCLC = tested on: HOP-62 NSCLC
HOP-92 NSCLC = tested on: HOP-92 NSCLC
NCI-H23 lung = tested on: NCI-H23 lung
MALME-3M melanoma = tested on: MALME-3M melanoma
SNB-75 CNS = tested on: SNB-75 CNS
CAKI-1 renal = tested on: CAKI-1 renal
EKVX NSCLC = tested on: EKVX NSCLC
MDA-MB-468 breast = tested on: MDA-MB-468 breast
A498 renal = tested on: A498 renal
RXF 393 renal = tested on: RXF 393 renal
PC-3 prostate = tested on: PC-3 prostate
HL-60(TB) leukemia = tested on: HL-60(TB) leukemia
T-47D breast = tested on: T-47D breast
COLO 205 colon = tested on: COLO 205 colon
SK-MEL-2 melanoma = tested on: SK-MEL-2 melanoma
TK-10 renal = tested on: TK-10 renal
MDA-MB-231 breast = tested on: MDA-MB-231 breast
OVCAR-5 ovarian = tested on: OVCAR-5 ovarian
UACC-257 melanoma = tested on: UACC-257 melanoma
SN12C renal = tested on: SN12C renal
SR leukemia = tested on: SR leukemia
NCI-H522 lung = tested on: NCI-H522 lung
SK-MEL-28 melanoma = tested on: SK-MEL-28 melanoma
U251 CNS = tested on: U251 CNS
SW-620 colon = tested on: SW-620 colon
M14 melanoma = tested on: M14 melanoma
HCT-116 colon = tested on: HCT-116 colon
KM12 colon = tested on: KM12 colon
SF-268 CNS = tested on: SF-268 CNS
IGROV1 ovarian = tested on: IGROV1 ovarian
UO-31 renal = tested on: UO-31 renal
UACC-62 melanoma = tested on: UACC-62 melanoma
NCI-H226 lung = tested on: NCI-H226 lung
SNB-19 CNS = tested on: SNB-19 CNS
HT29 colon = tested on: HT29 colon
NCI/ADR-RES ovarian = tested on: NCI/ADR-RES ovarian
OVCAR-8 ovarian = tested on: OVCAR-8 ovarian
SK-OV-3 ovarian = tested on: SK-OV-3 ovarian
SF-539 CNS = tested on: SF-539 CNS
MDA-MB-435 = tested on: MDA-MB-435

Cc1ccc(C(=O)NN2C(=O)/C(=C/C=C/c3ccc([N+](=O)[O-])o3)SC2=S)cc1
GI50 (NCI-H460 lung): 399 nM
TGI (NCI-H460 lung): 1570 nM
GI50 (LOX IMVI melanoma): 179 nM
TGI (LOX IMVI melanoma): 352 nM
GI50 (HCC-2998 colon): 486 nM
TGI (HCC-2998 colon): 1720 nM
GI50 (OVCAR-4 ovarian): 1600 nM
TGI (OVCAR-4 ovarian): 3100 nM
GI50 (BT-549 breast): 218 nM
TGI (BT-549 breast): 705 nM
GI50 (DU-145 prostate): 1500 nM
TGI (DU-145 prostate): 2920 nM
GI50 (HCT-15 colon): 125 nM
TGI (HCT-15 colon): 295 nM
GI50 (MCF7 breast): 413 nM
TGI (MCF7 breast): 1890 nM
GI50 (SF-295 CNS): 1760 nM
TGI (SF-295 CNS): 3480 nM
GI50 (SK-MEL-5 melanoma): 337 nM
TGI (SK-MEL-5 melanoma): 1240 nM
GI50 (A549 NSCLC): 2180 nM
TGI (A549 NSCLC): 5900 nM
GI50 (CCRF-CEM leukemia): 238 nM
TGI (CCRF-CEM leukemia): 826 nM
GI50 (OVCAR-3 ovarian): 752 nM
TGI (OVCAR-3 ovarian): 2630 nM
GI50 (RPMI-8226 leukemia): 267 nM
TGI (RPMI-8226 leukemia): 1170 nM
GI50 (HS 578T breast): 1860 nM
TGI (HS 578T breast): 6540 nM
GI50 (786-0 renal): 451 nM
TGI (786-0 renal): 1620 nM
GI50 (K-562 leukemia): 188 nM
TGI (K-562 leukemia): 3480 nM
GI50 (ACHN renal): 684 nM
TGI (ACHN renal): 1860 nM
GI50 (MOLT-4 leukemia): 294 nM
TGI (MOLT-4 leukemia): 2670 nM
GI50 (HOP-62 NSCLC): 1600 nM
TGI (HOP-62 NSCLC): 3120 nM
GI50 (HOP-92 NSCLC): 245 nM
TGI (HOP-92 NSCLC): 893 nM
GI50 (NCI-H23 lung): 337 nM
TGI (NCI-H23 lung): 1170 nM
GI50 (MALME-3M melanoma): 177 nM
TGI (MALME-3M melanoma): 378 nM
GI50 (SNB-75 CNS): 1300 nM
TGI (SNB-75 CNS): 3170 nM
GI50 (CAKI-1 renal): 911 nM
TGI (CAKI-1 renal): 2190 nM
GI50 (EKVX NSCLC): 543 nM
TGI (EKVX NSCLC): 1850 nM
GI50 (MDA-MB-468 breast): 1500 nM
TGI (MDA-MB-468 breast): 3120 nM
GI50 (A498 renal): 9160 nM
TGI (A498 renal): 22900 nM
GI50 (RXF 393 renal): 789 nM
TGI (RXF 393 renal): 2140 nM
GI50 (PC-3 prostate): 1140 nM
TGI (PC-3 prostate): 3000 nM
GI50 (HL-60(TB) leukemia): 1880 nM
TGI (HL-60(TB) leukemia): 10500 nM
GI50 (T-47D breast): 1730 nM
TGI (T-47D breast): 3480 nM
GI50 (COLO 205 colon): 348 nM
TGI (COLO 205 colon): 1070 nM
GI50 (SK-MEL-2 melanoma): 283 nM
TGI (SK-MEL-2 melanoma): 904 nM
GI50 (TK-10 renal): 1680 nM
TGI (TK-10 renal): 3580 nM
GI50 (MDA-MB-231 breast): 185 nM
TGI (MDA-MB-231 breast): 373 nM
GI50 (OVCAR-5 ovarian): 1430 nM
TGI (OVCAR-5 ovarian): 2790 nM
GI50 (UACC-257 melanoma): 1670 nM
TGI (UACC-257 melanoma): 3550 nM
GI50 (SN12C renal): 207 nM
TGI (SN12C renal): 535 nM
GI50 (SR leukemia): 46.8 nM
TGI (SR leukemia): > 100000 nM
GI50 (NCI-H522 lung): 185 nM
TGI (NCI-H522 lung): 363 nM
GI50 (SK-MEL-28 melanoma): 1090 nM
TGI (SK-MEL-28 melanoma): 2310 nM
GI50 (U251 CNS): 701 nM
TGI (U251 CNS): 1970 nM
GI50 (SW-620 colon): 181 nM
TGI (SW-620 colon): 389 nM
GI50 (M14 melanoma): 202 nM
TGI (M14 melanoma): 436 nM
GI50 (HCT-116 colon): 139 nM
TGI (HCT-116 colon): 290 nM
GI50 (KM12 colon): 1160 nM
TGI (KM12 colon): 4490 nM
GI50 (SF-268 CNS): 1960 nM
TGI (SF-268 CNS): 4820 nM
GI50 (IGROV1 ovarian): 811 nM
TGI (IGROV1 ovarian): 2110 nM
GI50 (UO-31 renal): 1210 nM
TGI (UO-31 renal): 2450 nM
GI50 (UACC-62 melanoma): 378 nM
TGI (UACC-62 melanoma): 1210 nM
GI50 (NCI-H226 lung): 509 nM
TGI (NCI-H226 lung): 1240 nM
GI50 (SNB-19 CNS): 1610 nM
TGI (SNB-19 CNS): 3010 nM
GI50 (HT29 colon): 222 nM
TGI (HT29 colon): 542 nM
GI50 (NCI/ADR-RES ovarian): 1220 nM
TGI (NCI/ADR-RES ovarian): 2880 nM
GI50 (OVCAR-8 ovarian): 292 nM
TGI (OVCAR-8 ovarian): 1020 nM
GI50 (SK-OV-3 ovarian): 1770 nM
TGI (SK-OV-3 ovarian): 3350 nM
GI50 (SF-539 CNS): 251 nM
TGI (SF-539 CNS): 718 nM
GI50 (MDA-MB-435): 267 nM
TGI (MDA-MB-435): 800 nM
